Where “and” joins values, the source holds several entries; their conditions need not be identical. Equal entries are not always repeated.
How the values were obtained:
[1] = biological target: T1, MKP5 (Mitogen-activated Protein Kinase Phosphatase 5) (Homo sapiens, UniProt Q9Y6W6); experiment: PhosphataseProfiler screen: MKP5; format: biochemical; conditions: 0.27 g/mL DJ001; replicates
T1 construct: purchased Eurofins Pharma Discovery Services UK
Protocol: (§1) Compound DJ001 was evaluated in a PhosphataseProfiler™ screen at 10 μM and 1 μM (2.7 μg/mL and 0.27 μg/mL) concentrations at Eurofins Pharma Discovery Services UK (Study number UK022-0004033) against a panel of 21 Phosphatases. In each experiment, the respective reference antagonist/agonist was tested directly with DJ001 and the data were compared with historical values determined at Eurofins. DJ001 compound inhibition was calculated as percentage inhibition of the enzymatic activity compared with control.

Protein Phosphatase 5 = biological target: T2, Protein Phosphatase 5 (Homo sapiens, UniProt P53041); experiment: PhosphataseProfiler screen: PP5; format: biochemical; conditions: for Supplementary Figure 1: PP5 activity: replicates
T2 construct: purchased Eurofins Pharma Discovery Services UK
T2 sequence (P53041 1-499): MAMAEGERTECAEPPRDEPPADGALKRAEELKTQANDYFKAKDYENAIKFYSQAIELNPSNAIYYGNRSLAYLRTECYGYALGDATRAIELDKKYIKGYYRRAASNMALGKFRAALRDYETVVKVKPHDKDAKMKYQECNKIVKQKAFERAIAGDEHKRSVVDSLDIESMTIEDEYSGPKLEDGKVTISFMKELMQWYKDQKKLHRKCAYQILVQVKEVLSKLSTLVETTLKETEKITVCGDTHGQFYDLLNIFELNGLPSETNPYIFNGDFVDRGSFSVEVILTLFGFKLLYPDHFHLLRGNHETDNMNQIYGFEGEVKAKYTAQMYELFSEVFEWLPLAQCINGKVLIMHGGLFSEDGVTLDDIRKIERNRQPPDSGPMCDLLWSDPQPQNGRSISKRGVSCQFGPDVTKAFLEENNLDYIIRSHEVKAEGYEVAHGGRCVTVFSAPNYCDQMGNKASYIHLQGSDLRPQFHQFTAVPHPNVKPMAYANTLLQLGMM
Protocol: as §1

[2] = biological target: T3, SHP-1 (Protein-Tyrosine Phosphatase 1C) (Homo sapiens, UniProt P29350); experiment: PhosphataseProfiler screen: SHP-1; format: biochemical; conditions: replicates
T3 construct: purchased Eurofins Pharma Discovery Services UK
Protocol: as §1

[3] = biological target: T4, VHR (Dual Specificity Phosphatase 3) (Homo sapiens, UniProt P51452); experiment: PhosphataseProfiler screen: VHR; format: biochemical; conditions: replicates
T4 construct: purchased Eurofins Pharma Discovery Services UK
Protocol: as §1

[4] = Pharmacokinetic study for DJ001; format: in vivo, mouse; conditions: for concentration of DJ001 in the peripheral blood: 5 mg/kg single subcutaneous dose
Protocol: PK studies for DJ001 were performed at Cyprotex (Study Number CYP1426-R1) under non-good laboratory practice conditions. Mice were subcutaneously injected with a single dose of 5 mg/kg DJ001 (in 10% DMSO, 40% phosphate-buffered saline (PBS), 50% polyethylene glycol and plasma samples were collected at 0.08, 0.25, 0.5, 1, 2, 4, 8, and 24 h. Samples were crashed with three volumes of methanol and analytical internal standard (propranolol). Supernatant was subjected to liquid chromatography-mass spectrometry/mass spectrometry (MS/MS) using an acetonitrile-water gradient system and electrospray ionization in multiple reaction monitoring mode for MS detection. All plasma samples were compared with an internal calibration curve prepared in mouse blank plasma.

p250GAP in BM lin− cells = experiment: p250GAP phospho-tyrosine sandwich ELISA; format: cell-based, mouse
Protocol: Clear, pre-blocked Protein A-coated Microtiter wells (Fisher Scientific, #15132) were incubated with ARHGAP32 polyclonal antibody (Bioss, #bs-9296R, 1:500) in antibody dilution buffer (150 mM NaCl, 25 mM HEPES pH 7.2, 0.5% bovine serum albumin, 0.05% Tween 20) for 3 h at room temperature (RT). Subsequently, the plate was washed three times and phosphorylated p250GAP from BM lin^− cell lysate was added to each well. BM lin^− cells were collected in NP40 buffer (ThermoFisher Scientific; FNN0021) supplemented with 1× complete, Mini, EDTA-free Protease Inhibitor Cocktail (Sigma Aldrich; 4693159001) and 1× PhosSTOP (Sigma Aldrich; 4906845001). Following incubation for 2 h at 4 °C, the plate was completely emptied (without washing) and exposed to 50 μL of a fixation solution (0.5% formaldehyde in 300 mM NaCl, 20 mM sodium phosphate buffer, pH 7) for 10 min. The plate-bound, phosphorylated p250GAP was measured by a specific anti-phospho-tyrosine peroxidase-coupled antibody (Sigma Aldrich, #A5964-1VL, 1:500) in antibody dilution buffer. Incubation was for 1 h at RT. Peroxidase activity was measured by a Tecan Infinity plate reader using BM Chemiluminescence ELISA Substrate (Sigma Aldrich, #11582950001).

pERK1/2 in BM KSL cells = experiment: phospho-ERK1/2 immunofluorescence microscopy; format: cell-based, mouse; conditions: irradiated BM KSL cells
Protocol: Lab-Tek chamber slides were coated with fibronectin (25 µg/mL, Millipore Sigma #341635). Sorted BM KSL cells (1 × 10^4) were resuspended in 200 µL TSF media and added to each of the pre-coated wells and incubated overnight (37 °C/5% CO2). The next day, cells were serum starved for 30 min and then stimulated with DJ001 (1 µg/mL), EHT1864 (6 µg/mL), or equal volumes of DMSO for 5 min. Cells were washed once with PBS and fixed with 4% PFA for 10 min. Cells were permeabilized with 0.5% Triton/PBS (PRM) for 30 min and then blocked with 5% fetal bovine serum (FBS)/PRM for 1 h. The slide was then incubated with a phospho-ERK1/2 primary antibody (Cell Signaling, #4377, 1:200) for 1 h. The wells were washed three times and then incubated with a donkey anti-rabbit Alexa Fluor 488 secondary antibody (Thermo Fischer, #A21206, 1:200) at a 1:200 concentration for 1 h. The slide was washed three times and mounted with ProLong Gold Antifade Reagent with DAPI. Cells were imaged using a ×63 objective on a Zeiss Axio Imager M2 widefield fluorescence microscope with all microscope settings derived from imaging a secondary only control. Data were analyzed using Fiji (ImageJ). Briefly, the cell outline was identified by threshold levels and the mean fluorescence intensity within the cell area was quantified.

BM KSL cells = experiment: Cell cycle analysis (Ki67/7AAD) of BM KSL cells; format: cell-based, mouse; conditions: non-irradiated BM KSL cells, 36 hours

T3 sequence (P29350 whole entry, species assumed): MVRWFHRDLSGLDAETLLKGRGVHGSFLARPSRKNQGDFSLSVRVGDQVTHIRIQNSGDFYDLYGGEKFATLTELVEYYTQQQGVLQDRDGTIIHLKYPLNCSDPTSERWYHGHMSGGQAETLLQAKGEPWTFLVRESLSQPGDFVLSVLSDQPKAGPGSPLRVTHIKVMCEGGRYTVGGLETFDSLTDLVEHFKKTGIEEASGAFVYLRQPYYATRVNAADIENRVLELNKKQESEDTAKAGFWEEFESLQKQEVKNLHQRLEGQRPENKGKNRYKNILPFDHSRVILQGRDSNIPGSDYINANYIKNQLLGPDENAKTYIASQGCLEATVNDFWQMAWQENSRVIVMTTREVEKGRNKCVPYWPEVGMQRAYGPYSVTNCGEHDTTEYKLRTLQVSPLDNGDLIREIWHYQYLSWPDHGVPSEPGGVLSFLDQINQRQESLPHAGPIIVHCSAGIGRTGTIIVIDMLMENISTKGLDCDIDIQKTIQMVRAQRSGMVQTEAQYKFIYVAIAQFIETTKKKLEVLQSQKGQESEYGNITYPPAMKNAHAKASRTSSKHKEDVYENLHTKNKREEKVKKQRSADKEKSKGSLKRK
T4 sequence (P51452 whole entry, species assumed): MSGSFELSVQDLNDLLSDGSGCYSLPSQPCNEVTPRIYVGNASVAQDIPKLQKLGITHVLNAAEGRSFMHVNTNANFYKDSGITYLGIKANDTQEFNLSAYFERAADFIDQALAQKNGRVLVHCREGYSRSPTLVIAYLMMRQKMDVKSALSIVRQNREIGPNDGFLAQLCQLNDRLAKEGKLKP
T1 sequence (Q9Y6W6 whole entry, species assumed): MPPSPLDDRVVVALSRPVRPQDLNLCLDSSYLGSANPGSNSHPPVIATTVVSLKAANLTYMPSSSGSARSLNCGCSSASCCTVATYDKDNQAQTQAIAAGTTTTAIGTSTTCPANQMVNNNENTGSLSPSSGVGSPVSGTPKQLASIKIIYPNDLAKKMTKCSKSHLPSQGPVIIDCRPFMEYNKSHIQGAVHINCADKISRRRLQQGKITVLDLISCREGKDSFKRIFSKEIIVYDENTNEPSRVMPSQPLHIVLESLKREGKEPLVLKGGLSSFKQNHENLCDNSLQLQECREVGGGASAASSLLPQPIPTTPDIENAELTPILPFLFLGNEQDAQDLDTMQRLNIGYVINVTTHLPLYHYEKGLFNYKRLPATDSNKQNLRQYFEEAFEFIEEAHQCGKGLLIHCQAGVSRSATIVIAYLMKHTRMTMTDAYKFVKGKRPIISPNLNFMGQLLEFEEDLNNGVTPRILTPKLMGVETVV

O=C(/C=C\Nc1cccc([N+](=O)[O-])c1)c1ccccc1 [DJ001, (Z)-3-((3-nitrophenyl)amino)-1-phenylprop-2-en-1-one]
Supplementary Figure 1: MKP5 activity [1]: 91 and 87 and 88
Supplementary Figure 1: PP5 activity (Protein Phosphatase 5; 2.7 μg/mL DJ001): 58 and 54 and 60
Supplementary Figure 1: PP5 activity (Protein Phosphatase 5; 0.27 g/mL DJ001): 78 and 80 and 75
inhibitory activity against Protein Phosphatase 5 (Protein Phosphatase 5; DJ001 at 10 μM and 1 μM): only modest inhibitory activity
Supplementary Figure 1: SHP-1 activity ([2]; 2.7 μg/mL DJ001): 81 and 82 and 85
Supplementary Figure 1: SHP-1 activity ([2]; 0.27 g/mL DJ001): 99 (2×) and 102
Supplementary Figure 1: VHR activity ([3]; 2.7 μg/mL DJ001): 94 and 84 and 95
Supplementary Figure 1: VHR activity ([3]; 0.27 g/mL DJ001): 100 and 101 and 98
concentration of DJ001 in the peripheral blood ([4]; through + 24 hours following administration): approximately 10 ng/ml
concentration of DJ001 in the peripheral blood ([4]; within 1 hour after administration): 100 ng/mL
DJ001 concentrations in the PB ([4]; 5 mg/kg subcutaneously × 1, over several hours post injection): 10 to 100 ng/mL
Supplementary Figure 4f: Concentration ([4]; 0.08 Hours, individual mice): 170 ng/mL and 54.7 ng/mL and 61.1 ng/mL
Supplementary Figure 4f: Concentration ([4]; 0.25 Hours, individual mice): 159 ng/mL and 93.5 ng/mL
Supplementary Figure 4f: Concentration ([4]; 0.5 Hours, individual mice): 113 ng/mL and 133 ng/mL and 60.5 ng/mL
Supplementary Figure 4f: Concentration ([4]; 1 Hours, individual mice): 40.5 ng/mL and 40.7 ng/mL
Supplementary Figure 4f: Concentration ([4]; 2 Hours, individual mice): 35.3 ng/mL and 19.5 ng/mL
Supplementary Figure 4f: Concentration ([4]; 4 Hours, individual mice): 5.8 ng/mL and 6.7 ng/mL
Supplementary Figure 4f: Concentration ([4]; 8 Hours, individual mice): 1.7 ng/mL and 7.8 ng/mL and 12.4 ng/mL
Supplementary Figure 4f: Concentration ([4]; 24 Hours, individual mice): 2.8 ng/mL and 2.3 ng/mL and 8.9 ng/mL
concentration at 0.25 h ([4]; C57BL/6, mouse, plasma, subcutaneous, 5 mg/kg, 0.25 Hours, individual mice, read-out: Supplementary Figure 4f: Concentration): 113 ng/mL
concentration at 1 h ([4]; C57BL/6, mouse, plasma, subcutaneous, 5 mg/kg, 1 Hours, individual mice, read-out: Supplementary Figure 4f: Concentration): 79.5 ng/mL
concentration at 2 h ([4]; C57BL/6, mouse, plasma, subcutaneous, 5 mg/kg, 2 Hours, individual mice, read-out: Supplementary Figure 4f: Concentration): 32.9 ng/mL
concentration at 4 h ([4]; C57BL/6, mouse, plasma, subcutaneous, 5 mg/kg, 4 Hours, individual mice, read-out: Supplementary Figure 4f: Concentration): 6.5 ng/mL
phosphorylation of p250GAP (p250GAP in BM lin− cells; 1 µg/mL DJ001): significantly increased phosphorylation of p250GAP
Figure 3a: p250GAP phosphorylation (phospho-tyrosine ELISA) (p250GAP in BM lin− cells; DJ001 vs media, individual replicates): 62.785 and 39.77 and 58.721 and 55.943 and 45.893 and 49.264 and 56.331
ERK1/2 phosphorylation (pERK1/2 in BM KSL cells): induced ERK1/2 phosphorylation
cell cycle status (BM KSL cells): did not alter the cell cycle status
